In patent publication US4123534A, “Adenine derivatives and hypolipidemic composition thereof” (Wulfing; Johann W., priority 1976, dated 1978):
Read-outs that look alike come from different tables or passages of the source.

Assays:
[1] = oral test in normal rats starved for 17 hours: serum lipid lowering; assay type: in vivo; conditions: rats starved 17 hours
Protocol: Similarly, a reduction in serum free fatty acid concentration of about 40-50% was produced over the dose range 0.15 mg/kg to 5 mg/kg.

[2] = fall in serum triglyceride levels in male rats, 1 mg/kg per os; assay type: in vivo; conditions: 3-methylpyrazole-5-carboxylic acid addition salts
Protocol: When administered to male rats the 3-methylpyrazole-5-carboxylic acid addition salts of the compound of the formula (IV) wherein R2 is respectively a methyl, ethyl, isopropyl and n-butyl at a dose of 1 mg/kg per os produced a fall in serum triglyceride levels of about 23%, 34%, 34% and 56% respectively.

[3] = different animal species and man; cited from earlier work
[4] = acute toxicity (LD50) in mice; assay type: in vivo; conditions: for LD50: mouse, in vivo, mice

CN(CCO)CC(O)Cn1cnc2c(N)ncnc21 (centres unmarked) [Example 2, 6-Amino-9-[2-hydroxy-3-(N-methyl-N-2-hydroxyethyl)aminopropyl]purine3-methylpyrazole-5-carboxylate]
reduction in serum triglyceride levels ([1]; 1 hour post administration, dose range 0.25 mg/kg to 25 mg/kg): 30-40%
reduction in serum cholesterol levels ([1]; dose of 100 mg/kg): about 30%
reduction in serum free fatty acid concentration ([1]; dose range 0.15 mg/kg to 5 mg/kg): 40-50%
fall in serum triglyceride levels [2]: about 23%

Nc1ncnc2c1ncn2C[C@@H](O)[C@@H](O)C(=O)O [lentinacin]
lowering of lipid components of plasma lipoproteins (cholesterol, triglycerides and phospholipids) [3]: lowers all lipid components of the plasma - lipoproteins

CCCCN(CCO)CC(O)Cn1cnc2c(N)ncnc21 (centres unmarked)
fall in serum triglyceride levels [2]: ~56%

CC(C)N(CCO)CC(O)Cn1cnc2c(N)ncnc21 (centres unmarked)
fall in serum triglyceride levels [2]: ~34%

CCN(CCO)CC(O)Cn1cnc2c(N)ncnc21 (centres unmarked)
fall in serum triglyceride levels [2]: ~34%

CN(CCO)CC(O)Cn1cnc2c(N)ncnc21 (stereo not drawn) [Example 1 (9-isomer), 6-Amino-9-[2-hydroxy-3-(N-methyl-N-2-hydroxyethyl)aminopropyl]purine]
acute toxicity ([4]; in words): low acute toxicity
LD50 ([4]; iv, intra-venous, read-out: LD50 by intra-venous administration): ~350 mg/kg
LD50 ([4]; oral, read-out: LD50 by oral administration): ~1000 mg/kg
